Data from patent US12653191B2, “Active compound combinations” (Bayer Aktiengesellschaft, priority 2020, dated 2026).
Several values for one entry are separate records, joined by “and”; a condition that tells them apart may be missing. Equal values may be shown once. Read-outs that look alike come from different tables or passages of the source.

Assays:
Cercospora beticola [1] = test: in vitro-Test with fungal microorganisms, Method A (tables C1-C10); format: cell-based
Method: (§1) Example: In Vitro-Test with Fungal Microorganisms
(§2) Wells of 96-well microtiter plates are filled with 10 μl of a preparation of test compound or compound combination in methanol+emulsifier alkylaryl-polyglycol-ether. Thereafter, the solvent is evaporated in a hood. At the next step, 100 μl of liquid potato dextrose medium is given into each well, that has been amended with an appropriate concentration of spores or mycelium suspension of the test fungus.
(§3) With the aid of a photometer, the extinction in all wells is measured at the wavelength of 620 nm.
(§4) The microtiter plates are incubated at 20° C. and 85% relative humidity. The inhibition of growth is determined again photometrically 3-5 days after the application. Efficacy is calculated in relation to the untreated control, 0% efficacy means fungal growth as high as in untreated control while 100% efficacy means no fungal growth is measured.
(§5) The data in tables A1 to A12, B1 to B14, C1 to C10, D1 to D8, E1 to E8, F1 to F11, G1 to G4, H1 to H4 and I1 to I5 were collected according to Method A. The data in tables A13 to A22, B15 to B18, C11 to C20, E9 to E16, F12 to F15, G5 to G15, H5 to H8, I6 to I11 and J1 to J11 were collected according to Method B.

Alternaria alternata = test: in vitro-Test with fungal microorganisms, Method B (tables A13-A22); format: cell-based; details: Alternaria alternata, single compound, read-out: Efficacy
Method: as §1
as §2, with “30” for “10”, “200” for “100”, “growth” for “potato dextrose”, “given,” for “given into each well,”
(§6) With the aid of a photometer, the extinction in all wells is measured at the wavelength of 600 nm.
(§7) The microtiter plates are incubated for 3 to 7 days at 20° C. and 85% relative humidity. After the incubation inhibition of growth is determined photometrically. Efficacy is calculated in relation to the untreated control, 0% efficacy means fungal growth as high as in untreated control while 100% efficacy means no fungal growth is measured.
as §5

Cercospora beticola [2] = test: in vitro-Test with fungal microorganisms, Method B (tables C11-C20); format: cell-based
Method: as §1
as §2, with “30” for “10”, “200” for “100”, “growth” for “potato dextrose”, “given,” for “given into each well,”
as §6, §7, §5

Cordana musae [3] = test: in vitro-Test with fungal microorganisms, Method A (tables E1-E8); format: cell-based; details: Neocordana musae, single substance, read-out: Efficacy %
Method: as §1, §2, §3, §4, §5

Diaporthe citri = test: in vitro-Test with fungal microorganisms, Method A (tables F1-F11); format: cell-based; details: Diaporthe citri, applied alone, read-out: Efficacy
Method: as §1, §2, §3, §4, §5

Alternaria alternate = test: in vitro-Test with fungal microorganisms, Method A (tables A1-A12); format: cell-based, Alternaria alternata; details: Alternaria, applied alone, read-out: Efficacy %
Method: as §1, §2, §3, §4, §5

Botrytis cinerea = test: in vitro-Test with fungal microorganisms, Method A (tables B1-B14); format: cell-based; details: Botrytis cinerea, alone, read-out: Efficacy %
Method: as §1, §2, §3, §4, §5

Cordana musae [4] = test: in vitro-Test with fungal microorganisms, Method B (tables E9-E16); format: cell-based; details: single active
Method: as §1
as §2, with “30” for “10”, “200” for “100”, “growth” for “potato dextrose”, “given,” for “given into each well,”
as §6, §7, §5

Fusarium culmorum = test: in vitro-Test with fungal microorganisms, Method B (tables G5-G15); format: cell-based
Method: as §1
as §2, with “30” for “10”, “200” for “100”, “growth” for “potato dextrose”, “given,” for “given into each well,”
as §6, §7, §5

Colletotrichum coccodes = test: in vitro-Test with fungal microorganisms, Method B (tables J1-J11); format: cell-based
Method: as §1
as §2, with “30” for “10”, “200” for “100”, “growth” for “potato dextrose”, “given,” for “given into each well,”
as §6, §7, §5

[5] = tested on: Colletotrichum lindemuthianum; test: in vitro-Test with fungal microorganisms, Method A (tables D1-D8); format: cell-based; details: Colletotrichum lindemuthianum, mixing partner alone, read-out: Efficacy %
Method: as §1, §2, §3, §4, §5

[6] = tested on: Ustilago segetum var. avenae; test: in vitro-Test with fungal microorganisms, Method B (tables I6-I11); format: cell-based
Method: as §1
as §2, with “30” for “10”, “200” for “100”, “growth” for “potato dextrose”, “given,” for “given into each well,”
as §6, §7, §5

[7] = Cercospora beticola, 0.008 ppm, read-out: Efficacy %
[8] = Cercospora beticola, 0.04 ppm, read-out: Efficacy %
[9] = Cercospora beticola, 0.2 ppm, read-out: Efficacy %
[10] = Cercospora beticola, read-out: Efficacy %
[11] = Cercospora beticola, single compound, read-out: Efficacy %
[12] = Fusarium culmorum, alone, read-out: Efficacy
[13] = Fusarium culmorum, single active compound, read-out: Efficacy

OC(Cc1ccccc1Cl)(Cn1nc[nH]c1=S)C1(Cl)CC1 (centres unmarked) [(1.018) prothioconazole, prothioconazole]
Efficacy % (Cercospora beticola [1]; 0.2 ppm alone): 98% | inhibition of growth at 0.008 ppm (Cercospora beticola [1]; [7]): 6% | inhibition of growth at 0.04 ppm (Cercospora beticola [1]; Cercospora beticola, 0.04 ppm alone, read-out: Efficacy %): 22% | inhibition of growth at 0.04 ppm (Cercospora beticola [1]; [8]): 38% | inhibition of growth at 0.2 ppm (Cercospora beticola [1]; Cercospora beticola, 0.2 ppm alone, read-out: Efficacy %): 100% | inhibition of growth at 0.2 ppm (Cercospora beticola [1]; [9]): 100% | inhibition of growth at 1 ppm (Cercospora beticola [1]; Cercospora beticola, 1.0 ppm alone, read-out: Efficacy %): 100% | inhibition of growth at 1 ppm (Cercospora beticola [1]; Cercospora beticola, 1.0 ppm, read-out: Efficacy %): 100% | inhibition of growth at 0.004 ppm (Alternaria alternata; 0.004 ppm): 46% | inhibition of growth at 0.02 ppm (Alternaria alternata; 0.02 ppm): 89% | inhibition of growth at 0.1 ppm (Alternaria alternata; 0.1 ppm): 100% | inhibition of growth at 0.5 ppm (Alternaria alternata; 0.5 ppm): 99% | inhibition of growth at 0.004 ppm (Cercospora beticola [2]; [10]): 39% | inhibition of growth at 0.1 ppm (Cercospora beticola [2]; [10]): 100% | inhibition of growth at 0.5 ppm (Cercospora beticola [2]; [10]): 100% | inhibition of growth at 0.004 ppm (Cercospora beticola [2]; [11]): 30% | inhibition of growth at 0.02 ppm (Cercospora beticola [2]; Cercospora beticola, single compound, 0.02 ppm, read-out: Efficacy %): 0% | inhibition of growth at 0.1 ppm (Cercospora beticola [2]; [11]): 15% | inhibition of growth at 0.5 ppm (Cercospora beticola [2]; [11]): 0% | inhibition of growth at 0.04 ppm (Cordana musae [3]; 0.04 ppm): 6% | inhibition of growth at 1 ppm (Cordana musae [3]; 1.0 ppm): 100% | inhibition of growth at 0.008 ppm (Diaporthe citri; 0.008 ppm): 0% | inhibition of growth at 0.04 ppm (Diaporthe citri; 0.04 ppm): 95% | inhibition of growth at 0.2 ppm (Diaporthe citri; 0.2 ppm): 100% | inhibition of growth at 1 ppm (Diaporthe citri; 1.0 ppm): 99% | inhibition of growth at 0.008 ppm (Alternaria alternate; 0.008 ppm): 20% | inhibition of growth at 0.04 ppm (Alternaria alternate; 0.04 ppm): 15% | inhibition of growth at 0.2 ppm (Alternaria alternate; 0.2 ppm): 94% | inhibition of growth at 0.008 ppm (Botrytis cinerea; 0.008 ppm): 0% | inhibition of growth at 0.04 ppm (Botrytis cinerea; 0.04 ppm): 48% | inhibition of growth at 0.2 ppm (Botrytis cinerea; 0.2 ppm): 94% | inhibition of growth at 1 ppm (Botrytis cinerea; 1.0 ppm): 100% | inhibition of growth at 0.004 ppm (Cordana musae [4]; Neocordana musae, 0.004 ppm, read-out: Efficacy): 0% | inhibition of growth at 0.1 ppm (Cordana musae [4]; Neocordana musae, 0.1 ppm, read-out: Efficacy): 81% | inhibition of growth at 0.5 ppm (Cordana musae [4]; Neocordana musae, 0.5 ppm, read-out: Efficacy): 100% | inhibition of growth at 0.004 ppm (Fusarium culmorum; [12]): 6% | inhibition of growth at 0.02 ppm (Fusarium culmorum; [12]): 52% | inhibition of growth at 0.1 ppm (Fusarium culmorum; Fusarium culmorum, 0.1 ppm, alone, read-out: Efficacy): 98% | inhibition of growth at 0.004 ppm (Fusarium culmorum; [13]): 22% | inhibition of growth at 0.02 ppm (Fusarium culmorum; [13]): 22% | inhibition of growth at 0.004 ppm (Colletotrichum coccodes; Colletotrichum coccodes, single active compound at 0.004 ppm, read-out: Efficacy %): 0% | inhibition of growth at 0.02 ppm (Colletotrichum coccodes; Colletotrichum coccodes, single active compound at 0.02 ppm, read-out: Efficacy %): 1% | inhibition of growth at 0.5 ppm (Colletotrichum coccodes; Colletotrichum coccodes, single active compound at 0.5 ppm, read-out: Efficacy %): 100% | inhibition of growth at 0.008 ppm ([5]; 0.008 ppm): 0% | inhibition of growth at 0.04 ppm ([5]; 0.04 ppm): 20% | inhibition of growth at 0.2 ppm ([5]; 0.2 ppm): 100% | inhibition of growth at 1 ppm ([5]; 1.0 ppm): 100%

N#Cc1ccc(Oc2ccc(C(F)(F)C(O)(Cn3[nH]cnc3=S)c3ccc(F)cc3F)nc2)cc1 (centres unmarked) [(1.062) fluoxytioconazole, fluoxytio-conazole]
Efficacy % (Cercospora beticola [2]; single compound, 0.008 ppm): 0% | Efficacy % (Cercospora beticola [2]; single compound, 0.04 ppm): 0% | Efficacy % (Cercospora beticola [2]; single compound, 0.2 ppm): 0% | Efficacy % (Cercospora beticola [2]; single compound, 1 ppm): 48% and 54% | Efficacy % ([6]; 0.04 ppm): 43% | Efficacy (Cordana musae [4]; 0.008 ppm): 4% | Efficacy (Cordana musae [4]; 0.2 ppm): 10% | Efficacy (Fusarium culmorum; single active compound, 1 ppm): 30% | Efficacy % (Colletotrichum coccodes; 0.008 ppm): 32% | Efficacy % (Colletotrichum coccodes; 0.04 ppm): 0% | Efficacy % (Colletotrichum coccodes; single active compound at 0.008 ppm): 0% | Efficacy % (Colletotrichum coccodes; single active compound at 0.04 ppm): 2% | Efficacy % (Colletotrichum coccodes; single active compound at 0.2 ppm): 29% | Efficacy % (Colletotrichum coccodes; single active compound at 1 ppm): 35%

COCC(=O)N(c1c(C)cccc1C)[C@H](C)C(=O)OC [(12.004) metalaxylm]
Efficacy % ([6]; 0.8 ppm): 8% | Efficacy % ([6]; 100 ppm): 3% | Efficacy % (Colletotrichum coccodes; single active compound at 0.8 ppm): 40% | Efficacy % (Colletotrichum coccodes; single active compound at 4 ppm): 24% | Efficacy % (Colletotrichum coccodes; single active compound at 20 ppm): 48% | Efficacy % (Colletotrichum coccodes; single active compound at 100 ppm): 61%

Cc1ccc(C[C@H]2CON=C(c3cc(C)nnc3Oc3cccc(Cl)c3F)N2)c(Cl)c1 [Compound I-339, (5S)-3-[3-(3-chloro-2-fluoro-phenoxy)-6-methylpyridazin-4-yl]-5-(2-chloro-4-methylbenzyl)-5,6-dihydro-4H-1,2,4-oxadiazine]
inhibition of growth at 0.04 ppm (Alternaria alternata; 0.04 ppm): 100% | inhibition of growth at 0.2 ppm (Alternaria alternata; 0.2 ppm): 100% | inhibition of growth at 1 ppm (Alternaria alternata; 1 ppm): 100% | inhibition of growth at 0.008 ppm (Cercospora beticola [2]; [7]): 28% | inhibition of growth at 0.04 ppm (Cercospora beticola [2]; [8]): 0% | inhibition of growth at 0.2 ppm (Cercospora beticola [2]; [9]): 61% | inhibition of growth at 1 ppm (Cercospora beticola [2]; Cercospora beticola, 1 ppm, read-out: Efficacy %): 98% | inhibition of growth at 0.008 ppm ([6]; alone, 0.008 ppm, read-out: Efficacy %): 2% | inhibition of growth at 0.04 ppm ([6]; alone, 0.04 ppm, read-out: Efficacy %): 0% | inhibition of growth at 0.2 ppm ([6]; alone, 0.2 ppm, read-out: Efficacy %): 0% | inhibition of growth at 1 ppm ([6]; alone, 1 ppm, read-out: Efficacy %): 0% | inhibition of growth at 0.008 ppm (Cordana musae [4]; Neocordana musae, 0.008 ppm, read-out: Efficacy): 63% | inhibition of growth at 0.04 ppm (Cordana musae [4]; Neocordana musae, 0.04 ppm, read-out: Efficacy): 100% | inhibition of growth at 0.2 ppm (Cordana musae [4]; Neocordana musae, 0.2 ppm, read-out: Efficacy): 100% | inhibition of growth at 1 ppm (Cordana musae [4]; Neocordana musae, 1 ppm, read-out: Efficacy): 100% | inhibition of growth at 0.008 ppm (Fusarium culmorum; Fusarium culmorum, 0.008 ppm, alone, read-out: Efficacy): 0% | inhibition of growth at 0.04 ppm (Fusarium culmorum; Fusarium culmorum, 0.04 ppm, alone, read-out: Efficacy): 0% | inhibition of growth at 0.2 ppm (Fusarium culmorum; Fusarium culmorum, 0.2 ppm, alone, read-out: Efficacy): 14% | inhibition of growth at 1 ppm (Fusarium culmorum; Fusarium culmorum, 1 ppm, alone, read-out: Efficacy): 99%
